Measured values taken from patent US11965039B2, “Compstatin analogues and their medical uses” (priority 2018, dated 2024).
Like-named read-outs stand apart in the source and are kept apart here. Starred links: 1 amine or outer side, 2 acyl side, 3 side chain; linkers in the order of their positions; H or OH if unused. Positions of bridges follow the written chain, without caps; N, C: chain ends. Non-standard residues stand in square brackets, D forms with d. Residues, ends and D or L forms follow the SMILES beside them. Groups on a side chain read outwards from the residue. *: point of attachment. Trp(1-Me) = Cn1cc(C[C@H](N)C(=O)O)c2ccccc21; C16 diacid = O=C(O)CCCCCCCCCCCCCCC(=O)*; γGlu = O=C(O)[C@H](CCC(=O)[*:2])N[*:1]; Sar = CNCC(=O)O

Test system: classical complement pathway
Experiment: In vitro haemolysis assay (inhibition of classical complement pathway)
Assay type: cell-based, human
Details: read-out: IC50, inhibition of hemolysis
Summary of the method: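 Compound dilutions preincubated 15 min at room temperature with diluted human serum (titrated per batch for 70-90% maximal haemolysis), then antibody-sensitized sheep RBC (10^7/well) added for 30 min at 37 °C in Tris/casein buffer, pH 7.4. Stopped with EDTA; haemolysis read at 405 nm; IC50 by 4PL fit.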

[1] = human serum, sensitized sheep red blood cells, Table 3, given as upper bounds

| SMILES | IC50 [1] [nM] | IC50 [nM] |
| --- | --- | --- |
| CC[C@H](C)[C@@H]1NC(=O)[C@@H](NC(=O)[C@H](Cc2ccc(O)cc2)NC(C)=O)CSSC[C@@H](C(=O)N[C@H](C(=O)N[C@@H](CCC(=O)O)C(=O)N[C@@H](CO)C(=O)NCC(=O)N[C@@H](C)C(N)=O)[C@@H](C)O)NC(=O)[C@H](CCCNC(=N)N)NC(=O)[C@H](Cc2c[nH]cn2)NC(=O)[C@H](CCC(=O)O)NC(=O)CNC(=O)[C@H](Cc2c[nH]c3ccccc23)NC(=O)[C@H](CC(=O)O)NC(=O)[C@H](CCC(N)=O)NC(=O)[C@H](Cc2cn(C)c3ccccc23)NC1=O [Compound 69] (Ac-YCI[Trp(1-Me)]QDWGEHRCTESGA-NH2; disulfide 2-12) | < 100 | – |
| CC[C@H](C)[C@@H]1NC(=O)[C@@H](NC(=O)[C@H](Cc2ccc(O)cc2)NC(=O)[C@H](C)NC(=O)[C@H](CO)NC(=O)CNC(=O)[C@H](CCC(=O)O)NC(C)=O)CSSC[C@@H](C(=O)N(C)CC(=O)N[C@@H](CCC(=O)O)C(N)=O)NC(=O)[C@H](CCCNC(=N)N)NC(=O)[C@H](Cc2c[nH]cn2)NC(=O)[C@H](CCC(=O)O)NC(=O)CNC(=O)[C@H](Cc2c[nH]c3ccccc23)NC(=O)[C@H](CCC(=O)O)NC(=O)[C@H](CCC(N)=O)NC(=O)[C@H](Cc2cn(C)c3ccccc23)NC1=O [Compound 70] (Ac-EGSAYCI[Trp(1-Me)]QEWGEHRC[Sar]E-NH2; disulfide 6-16) | < 100 | – |
| CC[C@H](C)[C@@H]1NC(=O)[C@@H](NC(=O)[C@H](Cc2ccc(O)cc2)NC(=O)[C@H](CCC(=O)O)NC(=O)[C@H](CO)NC(C)=O)CSSC[C@@H](C(=O)N(C)CC(=O)N[C@@H](CCC(=O)O)C(=O)N[C@@H](C)C(N)=O)NC(=O)[C@H](CCCNC(=N)N)NC(=O)[C@H](Cc2c[nH]cn2)NC(=O)[C@H](CCC(=O)O)NC(=O)CNC(=O)[C@H](Cc2c[nH]c3ccccc23)NC(=O)[C@H](CC(=O)O)NC(=O)[C@H](CCC(N)=O)NC(=O)[C@H](Cc2cn(C)c3ccccc23)NC1=O [Compound 71] (Ac-SEYCI[Trp(1-Me)]QDWGEHRC[Sar]EA-NH2; disulfide 4-14) | < 100 | – |
| CC[C@H](C)[C@@H]1NC(=O)[C@@H](NC(=O)[C@H](Cc2ccccc2)NC(=O)[C@H](CCC(=O)O)NC(=O)[C@H](CO)NC(C)=O)CSSC[C@@H](C(=O)N(C)CC(=O)N[C@@H](CCC(=O)O)C(=O)N[C@@H](C)C(N)=O)NC(=O)[C@H](CCCNC(=N)N)NC(=O)[C@H](Cc2c[nH]cn2)NC(=O)[C@H](CCC(=O)O)NC(=O)CNC(=O)[C@H](Cc2c[nH]c3ccccc23)NC(=O)[C@H](CC(=O)O)NC(=O)[C@H](CCC(N)=O)NC(=O)[C@H](Cc2cn(C)c3ccccc23)NC1=O [Compound 75] (Ac-SEFCI[Trp(1-Me)]QDWGEHRC[Sar]EA-NH2; disulfide 4-14) | < 100 | – |
| CC[C@H](C)[C@@H]1NC(=O)[C@@H](NC(=O)CN(C)C(=O)[C@H](CCC(=O)O)NC(=O)[C@H](CO)NC(C)=O)CSSC[C@@H](C(=O)N[C@H](C(=O)N[C@@H](CCC(=O)O)C(=O)N[C@@H](C)C(N)=O)[C@@H](C)O)NC(=O)[C@H](CCCNC(=N)N)NC(=O)[C@H](Cc2c[nH]cn2)NC(=O)[C@H](CCC(=O)O)NC(=O)CNC(=O)[C@H](Cc2c[nH]c3ccccc23)NC(=O)[C@H](CC(=O)O)NC(=O)[C@H](CCC(N)=O)NC(=O)[C@H](Cc2cn(C)c3ccccc23)NC1=O [Compound 82] (Ac-SE[Sar]CI[Trp(1-Me)]QDWGEHRCTEA-NH2; disulfide 4-14) | < 100 | – |
| CC[C@H](C)[C@@H]1NC(=O)[C@@H](NC(=O)[C@H](Cc2ccccc2)NC(=O)[C@H](CCC(=O)O)NC(=O)[C@H](CO)NC(C)=O)CSSC[C@@H](C(=O)N(C)CC(=O)N[C@@H](CCC(=O)O)C(=O)N[C@@H](C)C(N)=O)NC(=O)[C@H](CCCNC(=N)N)NC(=O)[C@H](Cc2c[nH]cn2)NC(=O)[C@H](CCC(=O)O)NC(=O)CNC(=O)[C@H](Cc2c[nH]c3ccccc23)NC(=O)[C@H](CCC(=O)O)NC(=O)[C@H](CCC(N)=O)NC(=O)[C@H](Cc2cn(C)c3ccccc23)NC1=O [Compound 83] (Ac-SEFCI[Trp(1-Me)]QEWGEHRC[Sar]EA-NH2; disulfide 4-14) | < 100 | – |
| CC[C@H](C)[C@@H]1NC(=O)[C@@H](NC(=O)[C@H](Cc2ccccc2)NC(=O)[C@H](CCC(=O)O)NC(=O)[C@H](CO)NC(C)=O)CSSC[C@@H](C(=O)N[C@@H](CO)C(=O)N[C@@H](CCC(=O)O)C(=O)N[C@@H](C)C(N)=O)NC(=O)[C@H](CCCNC(=N)N)NC(=O)[C@H](Cc2c[nH]cn2)NC(=O)[C@H](CCC(=O)O)NC(=O)CNC(=O)[C@H](Cc2c[nH]c3ccccc23)NC(=O)[C@H](CC(=O)O)NC(=O)[C@H](CCC(N)=O)NC(=O)[C@H](Cc2cn(C)c3ccccc23)NC1=O [Compound 84] (Ac-SEFCI[Trp(1-Me)]QDWGEHRCSEA-NH2; disulfide 4-14) | – | < 100 |
| CC[C@H](C)[C@@H]1NC(=O)[C@@H](NC(=O)[C@H](Cc2ccccc2)NC(=O)[C@H](CCC(=O)O)NC(C)=O)CSSC[C@@H](C(=O)N[C@@H](CCC(=O)O)C(=O)N[C@@H](CO)C(N)=O)NC(=O)[C@H](CCCNC(=N)N)NC(=O)[C@H](Cc2c[nH]cn2)NC(=O)[C@H](CCC(=O)O)NC(=O)CNC(=O)[C@H](Cc2c[nH]c3ccccc23)NC(=O)[C@H](CC(=O)O)NC(=O)[C@H](CCC(N)=O)NC(=O)[C@H](Cc2cn(C)c3ccccc23)NC1=O [Compound 85] (Ac-EFCI[Trp(1-Me)]QDWGEHRCES-NH2; disulfide 3-13) | < 100 | – |
| CC[C@H](C)[C@@H]1NC(=O)[C@@H](NC(=O)[C@H](Cc2ccccc2)NC(=O)[C@H](CCC(=O)O)NC(=O)[C@H](CO)NC(C)=O)CSSC[C@@H](C(=O)N(C)CC(=O)N[C@@H](CCC(=O)O)C(=O)N[C@@H](C)C(N)=O)NC(=O)[C@H](CCCCN)NC(=O)[C@H](Cc2c[nH]cn2)NC(=O)[C@H](CCC(=O)O)NC(=O)CNC(=O)[C@H](Cc2c[nH]c3ccccc23)NC(=O)[C@H](CC(=O)O)NC(=O)[C@H](CCC(N)=O)NC(=O)[C@H](Cc2cn(C)c3ccccc23)NC1=O [Compound 86] (Ac-SEFCI[Trp(1-Me)]QDWGEHKC[Sar]EA-NH2; disulfide 4-14) | < 100 | – |
| CC[C@H](C)[C@@H]1NC(=O)[C@@H](NC(=O)[C@H](Cc2ccccc2)NC(=O)[C@H](CCC(=O)O)NC(=O)CNC(C)=O)CSSC[C@@H](C(=O)N(C)CC(=O)N[C@@H](CCC(=O)O)C(=O)N[C@@H](C)C(N)=O)NC(=O)[C@H](CCCNC(=N)N)NC(=O)[C@H](Cc2c[nH]cn2)NC(=O)[C@H](CCC(=O)O)NC(=O)CNC(=O)[C@H](Cc2c[nH]c3ccccc23)NC(=O)[C@H](CC(=O)O)NC(=O)[C@H](CCC(N)=O)NC(=O)[C@H](Cc2cn(C)c3ccccc23)NC1=O [Compound 87] (Ac-GEFCI[Trp(1-Me)]QDWGEHRC[Sar]EA-NH2; disulfide 4-14) | < 100 | – |
| CC[C@H](C)[C@@H]1NC(=O)[C@@H](NC(=O)CN(C)C(=O)[C@H](CCC(=O)O)NC(=O)CNC(C)=O)CSSC[C@@H](C(=O)N[C@H](C(=O)N[C@@H](CCC(=O)O)C(=O)N[C@@H](C)C(N)=O)[C@@H](C)O)NC(=O)[C@H](CCCNC(=N)N)NC(=O)[C@H](Cc2c[nH]cn2)NC(=O)[C@H](CCC(=O)O)NC(=O)CNC(=O)[C@H](Cc2c[nH]c3ccccc23)NC(=O)[C@H](CC(=O)O)NC(=O)[C@H](CCC(N)=O)NC(=O)[C@H](Cc2cn(C)c3ccccc23)NC1=O [Compound 88] (Ac-GE[Sar]CI[Trp(1-Me)]QDWGEHRCTEA-NH2; disulfide 4-14) | < 100 | – |
| CC[C@H](C)[C@@H]1NC(=O)[C@@H](NC(=O)CN(C)C(=O)[C@H](CCC(=O)O)NC(=O)[C@H](CO)NC(C)=O)CSSC[C@@H](C(=O)N[C@H](C(=O)N[C@@H](CCC(=O)O)C(=O)N[C@@H](C)C(N)=O)[C@@H](C)O)NC(=O)[C@H](CCCNC(=N)N)NC(=O)[C@H](Cc2c[nH]cn2)NC(=O)[C@H](CCC(=O)O)NC(=O)CN(C)C(=O)[C@H](Cc2c[nH]c3ccccc23)NC(=O)[C@H](CCC(=O)O)NC(=O)[C@H](CCC(N)=O)NC(=O)[C@H](Cc2cn(C)c3ccccc23)NC1=O [Compound 89, Ac-SE[Sar]C(1)I[1-Me-Trp]QEW[Sar]EHRC(1)TEA-NH2] (Ac-SE[Sar]CI[Trp(1-Me)]QEW[Sar]EHRCTEA-NH2; disulfide 4-14) | < 100 | – |
| CC[C@H](C)[C@@H]1NC(=O)[C@@H](NC(=O)CN(C)C(=O)[C@H](CCC(=O)O)NC(=O)[C@H](CO)NC(C)=O)CSSC[C@@H](C(=O)N(C)CC(=O)N[C@@H](CCC(=O)O)C(=O)N[C@@H](C)C(N)=O)NC(=O)[C@H](CCCNC(=N)N)NC(=O)[C@H](Cc2c[nH]cn2)NC(=O)[C@H](CCC(=O)O)NC(=O)CNC(=O)[C@H](Cc2c[nH]c3ccccc23)NC(=O)[C@H](CCC(=O)O)NC(=O)[C@H](CCC(N)=O)NC(=O)[C@H](Cc2cn(C)c3ccccc23)NC1=O [Compound 90] (Ac-SE[Sar]CI[Trp(1-Me)]QEWGEHRC[Sar]EA-NH2; disulfide 4-14) | < 250 | – |
| CC[C@H](C)[C@@H]1NC(=O)[C@@H](NC(=O)CN(C)C(=O)[C@H](N)Cc2ccc(O)cc2)CSSC[C@@H](C(=O)N[C@H](C(=O)N[C@@H](CCC(=O)O)C(=O)N[C@@H](C)C(N)=O)[C@@H](C)O)NC(=O)[C@H](CCCNC(=N)N)NC(=O)[C@H](Cc2c[nH]cn2)NC(=O)[C@H](CCC(=O)O)NC(=O)CNC(=O)[C@H](Cc2c[nH]c3ccccc23)NC(=O)[C@H](CC(=O)O)NC(=O)[C@H](CCC(N)=O)NC(=O)[C@H](Cc2cn(C)c3ccccc23)NC1=O [Compound 91] (H-[dY][Sar]CI[Trp(1-Me)]QDWGEHRCTEA-NH2; disulfide 3-13) | < 100 | – |
| CC[C@H](C)[C@H](NC(C)=O)C(=O)N[C@H]1CSSC[C@@H](C(=O)N[C@H](C(=O)N[C@@H](CCC(=O)O)C(=O)NCC(=O)N[C@@H](CCCCNC(=O)CC[C@H](NC(=O)CCCCCCCCCCCCCCC(=O)O)C(=O)O)C(N)=O)[C@@H](C)O)NC(=O)[C@H](CCCNC(=N)N)NC(=O)[C@H](Cc2c[nH]cn2)NC(=O)[C@H](CCC(=O)O)NC(=O)CNC(=O)[C@H](Cc2c[nH]c3ccccc23)NC(=O)[C@H](CC(=O)O)NC(=O)[C@H](CCC(N)=O)NC(=O)[C@H](Cc2c[nH]c3ccccc23)NC(=O)[C@H]([C@@H](C)CC)NC1=O [Compound 92] (Ac-ICIWQDWGEHRCTEGK([γGlu-C16 diacid])-NH2; disulfide 2-12) | < 1000 | – |
